This note sets out measurements from patent US12617788B2, “Bridged bicyclic compounds as BTK inhibitors” (Beijing InnoCare Pharma Tech Co., Ltd., priority 2020, dated 2026).

Data set [1] deals with T1, human-derived recombinant BTK protein (Homo sapiens, UniProt Q06187).
T1 construct: purchased Carna Biosciences 08-180
The data set can be described thus: BTK activity inhibition assay (HTRF kinase assay). It is filed as biochemical. The note with it: 40 μM ATP. How it is done: In vitro kinase assay was used to evaluate the effects of compounds of the present invention on BTK activity (Table 1).
By using the homogeneous time-resolved fluorescence (HTRF) kinase detection kit (Cisbio, catalog number 62TK0PEC), the enzymatic activity of BTK is determined by detecting the phosphorylation level of the substrate in the kinase reaction. […]
(§1) Add 4 μL test compound solution and 2 μL kinase reaction solution to a 384-well detection plate (Corning, catalog number 3674), mix well and incubate at room temperature for 15 minutes; add 4 μL substrate reaction solution and incubate for 50 minutes; add 10 μL detection buffer, mix well and stand for 60 minutes; detect signal at 620 nm and 665 nm using an Envision plate reader (Perkin Elmer). The signal value (absorbance at 665 nm/absorbance at 620 nm) is positively correlated with the degree of phosphorylation of the substrate, thereby detecting the kinase activity of BTK. […] The inhibition curve is plotted and the corresponding IC50 value of the test compound is calculated using XLfit software (ID Business Solutions Ltd., UK).
In general terms: Time-resolved FRET reads energy transfer from a long-lived donor to a nearby acceptor.

The target in data set [2] is T2, human recombinant BTK C481S protein (Homo sapiens, UniProt Q06187, C481S).
T2 construct: made in house
T2 sequence (Q06187 whole entry C481S): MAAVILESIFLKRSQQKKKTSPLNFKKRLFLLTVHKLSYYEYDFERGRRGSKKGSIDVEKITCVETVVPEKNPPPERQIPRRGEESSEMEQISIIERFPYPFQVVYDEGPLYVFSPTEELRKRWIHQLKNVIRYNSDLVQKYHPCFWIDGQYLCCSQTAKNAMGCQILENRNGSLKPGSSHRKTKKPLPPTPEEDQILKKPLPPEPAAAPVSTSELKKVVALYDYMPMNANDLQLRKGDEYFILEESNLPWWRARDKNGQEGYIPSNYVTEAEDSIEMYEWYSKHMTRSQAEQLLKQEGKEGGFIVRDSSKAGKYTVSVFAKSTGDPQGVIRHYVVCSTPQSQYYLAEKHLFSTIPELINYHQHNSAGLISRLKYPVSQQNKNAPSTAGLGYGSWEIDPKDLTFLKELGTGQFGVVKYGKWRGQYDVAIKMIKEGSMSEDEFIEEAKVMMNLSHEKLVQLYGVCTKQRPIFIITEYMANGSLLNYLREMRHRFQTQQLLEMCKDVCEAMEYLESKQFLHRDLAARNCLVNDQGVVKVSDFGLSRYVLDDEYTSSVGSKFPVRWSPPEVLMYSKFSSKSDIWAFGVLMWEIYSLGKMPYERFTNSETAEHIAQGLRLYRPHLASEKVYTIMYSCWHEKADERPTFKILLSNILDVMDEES
Nature of the data set: BTK C481S activity inhibition assay (HTRF kinase assay). Particulars: 35 μM ATP. It is filed as biochemical. How it is done: In vitro kinase assay was used to evaluate the effects of compounds of the present invention on BTK C481S activity (Table 1).
By using the homogeneous time-resolved fluorescence (HTRF) kinase detection kit (Cisbio, catalog number 62TK0PEC), the enzymatic activity of BTK C481S is determined by detecting the phosphorylation level of the substrate in the kinase reaction. […]
as §1, with “BTK C481S.” for “BTK.”

Data set [3] is described as follows: Brain penetration activity test in rats. Format: in vivo. Particulars: for Brain penetration (result in words): male Sprague Dawley rats, oral 5 mg/kg; for Kp at 8 h: male, Sprague Dawley, rat, brain tissue homogenate / plasma, po, 5 mg/kg, AUCbrain/AUCplasma, samples at 1, 2, 4 and 8 hours. How it is done:
“CSF/plasma ratio (Kp, CSF)” refers to the ratio of a compound concentration in cerebrospinal fluid (CSF) vs. in plasma. The ability of a compound to cross blood-brain barrier (BBB) is assessed by measuring its concentrations in CSF and plasma in rodents, and determining the ratio (Kp, CSF).
Compound A or B in a 0.5 mg/mL solution containing 5% N,N-dimethylacetamide+10% solutol+85% saline was orally administered to twelve male Sprague Dawley rats at a dose of 5 mg/kg. Samples of plasma, brain tissue homogenate (for measuring Kp, brain) and cerebrospinal fluid (for measuring Kp, CSF) were collected at 1, 2, 4 and 8 hours after administration (from three animals at each time point).
The concentrations of the compound in plasma, brain tissue homogenate, and CSF were quantified by LC-MS/MS using an API-4500 mass spectrometer, respectively. The limit of quantification (LOQ) of analysis was 1 ng/mL. The pharmacokinetic (PK) parameters were calculated by the non-compartmental method using WinNonlin. Each of Kp, brain and Kp, CSF was calculated as AUCbrain/AUCplasma and AUCCSF/AUCplasma, respectively.

In general, IC50 refers to the point on the concentration scale where inhibition reaches its midpoint. What is called Kp is tissue or fluid exposure divided by exposure in the circulation.

T1 sequence (Q06187 whole entry): as the sequence (Q06187 whole entry C481S) above, with S481C counted along it

Consider `COc1ccc(F)cc1C(=O)NCc1ccc(-c2nc(C34CCC(C(=O)O)(CC3)CC4)n3ncnc(N)c23)cc1` [Compound A, 4-(4-amino-5-(4-((5-fluoro-2-methoxybenzamido)methyl)phenyl)imidazo[5,1-f][1,2,4]triazin-7-yl)bicyclo[2.2.2]octane-1-carboxylic acid], for which the IC50 in data set [1] came out at 0.7 nM. Besides, in data set [2], the IC50 was 1.3 nM. Further, in data set [3], the “Brain penetration (result in words)” value is recorded as “non-brain penetrants” and the Kp at 8 h was found to be 0.0355.
Consider `COc1ccc(F)cc1C(=O)NCc1ccc(-c2nc(C34CCC(C(=O)N5CCOCC5)(CC3)CC4)n3ncnc(N)c23)cc1` [Compound B, N-(4-(4-amino-7-(4-(morpholine-4-carbonyl)bicyclo[2.2.2]octan-1-yl)imidazo[5,1-f][1,2,4]triazin-5-yl)benzyl)-5-fluoro-2-methoxybenzamide], for which the IC50 in data set [1] was determined as 1 nM. Also, in data set [2], the IC50 came to 1.2 nM. In data set [3], the “Brain penetration (result in words)” value was “non-brain penetrants” and the Kp at 8 h amounted to 0.0315.
